# Test results: patent US11001591B2, “TRAF 6 inhibitors” (HELMHOLTZ ZENTRUM MUENCHEN—DEUTSCHES FORSCHUNGSZENTRUM FÜR …, priority 2016, dated 2021)
# Entries after “also recorded” stand apart in the source; their conditions may differ.
# Columns and labels:
# [1] = tested on: U2932 (ABC DLBCL-MYD88 wt); assay: Cell viability in DLBCL, U2932; type: cell-based; conditions: 30 μM added at day 0, 4 and 8; 9 days
# Procedure: (§1) To determine the effects of C25-140 on MYD88-dependent ABC-DLBCL, we chose the HBL1 (ABC-DLBCL-MYD88 L265P), U2932 (ABC DLBCL-MYD88 wt) and BJAB (GCB DLBCL) cell lines. 1×10^6 cells of each cell line was seeded in 5 ml and treated with 30 μM compound C25-140 (compound 3) or DMSO. The entire experiment was carried out for 9 days. Every day 500 μl were taken and viable cell number was acquired using the ViCEII cell counter (Beckmann Coulter). At days 4 and 8 of the experiment the volume was again adjusted to 5 ml and samples were supplemented with 30 μM compound C25-140 or DMSO. This process was necessary to ensure linear proliferation of DMSO treated cells. All curves of C25-140 treated samples were referred to the corresponding DMSO treated controls.
# [2] = biological target: T1, TRAF6-UBC13 interaction (Homo sapiens, UniProt Q9Y4K3); assay: ALPHAScreen TRAF6WTStrepII-Ubc13FH interaction assay; type: binding; conditions: inhibition of TRAF6-UBC13 interaction
# T1 construct: RING-Zincfinger1 (RZ1) domain (residues 50-159) of TRAF6 wildtype; made in house; host or cells: E. coli BL21 codon plus RIPL
# T1 sequence (Q9Y4K3 50-159): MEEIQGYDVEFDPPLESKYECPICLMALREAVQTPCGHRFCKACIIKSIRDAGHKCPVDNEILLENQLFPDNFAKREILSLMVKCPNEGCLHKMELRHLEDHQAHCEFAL
# From the text: In order to identify small molecules that specifically target the RZ1 domain of TRAF6 and thereby prevent its binding to Ubc13, the ALPHAScreen technology (PerkinElmer) was chosen to detect TRAF6WTStrepII-Ubc13FH interaction in High-Throughput-Screenings as well as Structure Activity Relationship (SAR) analysis.
# For performance of an automated ALPHAScreen assay, all following components were pre-diluted in ALPHAScreen buffer (1×PBS, 0.5% BSA, 0.01% Tween-20). First, the TRAF6 protein (end concentration 100 nM, 30 μL volume) was added to 384-well-opti-plates involving the MultiFlo dispensing system (BioTek) followed by transfer of the compounds via the Sciclone G3 transfer station (PerkinElmer). After addition of Ubc13FH (end concentration 75 nM, 10 μL volume) with the MultiFlo system and incubation for one hour at room temperature, both beads (Strep-Tactin Alpha Donor beads and Nickel-Chelate acceptor beads; end concentrations 4 μg each, 10 μL volume each) were mixed and added using the MultiFlo system in subdued light. Read-out of the plates occurred after another hour of incubation at room temperature. Statistical parameters including the coefficient of variation, Z′ factor and signal window were calculated to determine the quality of the HTS campaign. To evaluate the efficacy of the compounds, ALPHAScreen units of compound-treated samples were referred to DMSO control treated samples. Thereby, the TRAF6D57K mutant served as the control for minimum signal and was included on every plate of the screening. Compounds that inhibited TRAF6WTStrepII-Ubc13FH by more than 25% were considered as actives. After elimination of ALPHAScreen frequent hitter compounds and His-tag frequent hitters (Schorpp, K., I. Rothenaigner, E. Salmina, et al., Identification of Small-Molecule Frequent Hitters from AlphaScreen High-Throughput Screens. J Biomol Screen, 2014. 19(5): p. 715-26), 178 compounds were defined as primary hits and were subsequently tested in five-point serial dilution assays (2.5-40 μM) in TRAF6WTStrepII-Ubc13FH ALPHAScreen experiments. Only compounds with dose-dependent effects on TRAF6WTStrepII-Ubc13FH (n=27) were taken for further research. For analog testing, all compounds were analyzed in ten-point titration (0.2-100 μM) in TRAF6WTStrepII-Ubc13FH ALPHAScreen experiments. In parallel, the compounds were tested in the ALPHAScreen TruHits Kit (PerkinElmer) to rule out unspecific interference with the ALPHAScreen technology.
# [3] = tested on: Caco-2 layer; assay: Caco-2 assay; type: in vitro ADME
# Procedure: (§2) All ADME (plasma stability, plasma protein binding, microsomal stability, Log D, Caco-2 assay, CYP450 inhibition and hERG predictor assay) as well as pharmacokinetic studies (Tmax, Cmax, AUC0-240 min, Mean Residence Time, Elimination half life, Elimination rate constant, Volume of Distribution and Clearance) of C25-140 (compound 3) were conducted by Bienta Enamine Biology Services of Bienta/Enamine Ltd.
# [4] = tested on: BJAB (GCB DLBCL); assay: Cell viability in DLBCL, BJAB; type: cell-based; conditions: 30 μM added at day 0, 4 and 8; 9 days
# Procedure: as §1
# [5] = tested on: TRAF6 auto-ubiquitination; assay: Immunoprecipitation of TRAF6, endogenous ubiquitination in MEF cells; type: cell-based, mouse
# Procedure: 2.5×10^6 MEF cells were seeded, treated with compound for 6 hours and stimulated with IL-1β (3.5 ng/mL) for 10 minutes. Cells were lysed in Co-IP lysis buffer containing 1% SDS to eliminate all cellular interactions. After cell lysis and removal of input samples, the samples were diluted to 0.1% SDS and incubated with 5 μL TRAF6 antibody EP591Y (Abcam) and immunoprecipitated with Protein-G-Sepharose beads. After washing of the beads in Co-IP wash buffer, TRAF6 protein was eluted and levels of TRAF6 ubiquitination were detected by Western Blot analysis.
# [6] = biological target: T2, TRAF6-Ubc13 binding (Homo sapiens, UniProt Q9Y4K3); assay: Co-immunoprecipitation of HA-TRAF6 and endogenous Ubc13 in HEK 293T cells; type: cell-based; conditions: listed as C25-140
# T2 construct: RING-Zincfinger1 (RZ1) domain (residues 50-159) of TRAF6 wildtype; expressed in transfected cells; host or cells: HEK 293T
# T2 sequence (Q9Y4K3 50-159): T1 sequence (Q9Y4K3 50-159)
# Procedure: To study the interaction of TRAF6 and Ubc13 in cells, 1×10^6 293T cells were seeded and after 18 hours cells were transfected with lpg pEF-HA empty or pEF-HA-TRAF6 RZ1 plasmid using the X-tremeGENE HP DNA transfection reagent (Roche). 6 hours upon transfection, cells were treated with compound or DMSO. After 42 hours further incubation, cells were harvested in Co-IP lysis buffer and HA-TRAF6 was immunoprecipitated with anti-HA affinity matrix (Roche). Binding of Ubc13 to TRAF6 was examined in Western Blot analysis.
# [7] = biological target: T3, hERG (Homo sapiens, UniProt Q12809); assay: hERG predictor assay; type: in vitro ADME
# T3 construct: Bienta/Enamine Ltd. (contract lab)
# Procedure: as §2
# T3 sequence (Q12809 whole entry): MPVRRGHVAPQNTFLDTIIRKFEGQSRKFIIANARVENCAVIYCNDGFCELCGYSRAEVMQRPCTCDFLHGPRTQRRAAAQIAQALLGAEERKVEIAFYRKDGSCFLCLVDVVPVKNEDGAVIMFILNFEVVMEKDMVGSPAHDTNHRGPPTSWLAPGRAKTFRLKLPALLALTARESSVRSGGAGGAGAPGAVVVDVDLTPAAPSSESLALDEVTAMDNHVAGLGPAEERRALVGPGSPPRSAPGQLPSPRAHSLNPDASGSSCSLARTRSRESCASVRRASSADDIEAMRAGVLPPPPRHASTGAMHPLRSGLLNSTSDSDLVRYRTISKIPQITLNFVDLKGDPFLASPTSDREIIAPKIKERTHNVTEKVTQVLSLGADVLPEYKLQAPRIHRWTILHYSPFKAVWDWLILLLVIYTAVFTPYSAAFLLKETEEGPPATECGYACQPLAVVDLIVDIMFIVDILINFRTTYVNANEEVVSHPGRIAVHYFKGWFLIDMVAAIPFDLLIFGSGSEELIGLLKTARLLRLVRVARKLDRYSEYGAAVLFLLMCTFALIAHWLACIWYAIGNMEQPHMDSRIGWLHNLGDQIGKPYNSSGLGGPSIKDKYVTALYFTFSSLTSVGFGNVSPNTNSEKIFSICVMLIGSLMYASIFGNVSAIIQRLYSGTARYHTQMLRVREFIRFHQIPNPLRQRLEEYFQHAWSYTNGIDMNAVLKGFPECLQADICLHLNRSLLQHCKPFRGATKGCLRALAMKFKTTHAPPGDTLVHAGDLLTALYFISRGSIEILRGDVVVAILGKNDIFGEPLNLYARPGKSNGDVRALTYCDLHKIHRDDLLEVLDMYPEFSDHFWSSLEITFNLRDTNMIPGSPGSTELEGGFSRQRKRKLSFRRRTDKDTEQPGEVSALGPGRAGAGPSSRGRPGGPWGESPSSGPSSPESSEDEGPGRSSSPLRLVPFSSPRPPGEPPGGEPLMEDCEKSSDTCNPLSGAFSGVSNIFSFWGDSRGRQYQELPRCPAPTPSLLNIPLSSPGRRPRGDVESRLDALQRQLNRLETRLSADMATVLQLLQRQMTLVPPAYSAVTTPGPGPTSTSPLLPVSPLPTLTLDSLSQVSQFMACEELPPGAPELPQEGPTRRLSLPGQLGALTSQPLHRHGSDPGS
structure (smiles),measurement,setting,value
"Cc1nn(-c2ccc3nnc(C)n3n2)c(C)c1CCC(=O)N1CCC(Cc2ccccc2)CC1 [Compound 3, 1-(4-benzylpiperidin-1-yl)-3-(3,5-dimethyl-1-(3-methyl-[1,2,4]triazolo[4,3-b]pyridazin-6-yl)-1H-pyrazol-4-yl)propan-1-one]",viability (cell count),[1],only slightly affected
same,IC50,[2],≤ 3 µM
same,Caco-2 permeability,[3],good penetration
same,viability (cell count),[4],did not show any difference
same,IL-1β-induced TRAF6 auto-ubiquitination,[5],reduced
same,interaction of endogenous Ubc13 with ectopically expressed HA-TRAF6,[6],reduced interaction; also recorded: most active analogs
same,hERG inhibition,[7],does not very much inhibit hERG
